The record followed here is patent US20170176446A1, “Methods for Determining the Oncogenic Condition of Cell, Uses Thereof, and Methods for Treating Cancer” (INSERM (INSTITUT NATIONAL DE LA SANTE ET DE LA RECHERCHE …, priority 2009, published 2017).

SMILES strings stand for the structures.

Experiment [1] relates to P19. The experiment in a line: Inhibition of OCDO production by PBPE in P19. In kind it is cell-based, murine. The conditions noted are these: Mus musculus, 40 μM PBPE, 48 hours. How it is done: (§1) An analogous experiment was reproduced with different cell lines, with the cells tested being incubated for 48 hours in a 40 μM solution of PBPE. It was noted that the OCDO was 100% inhibited for all the lines in the following table that were tested:
(§2) Generally, in order to establish the percentages of OCDO inhibition from the thin-layer chromatography (TLC) plates obtained as in assay 2, the radioactive metabolites are identified and quantified on the basis of said plates using a europium-sensitive plate of GP Phosphor screen type (GE Healthcare) and a Storm 840 phosphorimagor (GE Healthcare). The proportion of radiolabeled oxysterols is determined on the autoradiogram obtained by densitometry using the Image Quant 5.2 software. The percentage is calculated on the basis of the ratio between the amount of oxysterols quantified divided by the sum of the amounts of oxysterols (CEE+CE+CT+OCDO). Since the CEE (CE ester) originates exclusively from the CE, the percentage CE is calculated on the basis of the ratio (CE+CEE)/(CE+CEE+CT+OCDO).

Experiment [2] has as its system HT-29. Briefly: Inhibition of OCDO production by PBPE in HT-29. In kind it is cell-based. The conditions noted are these: Homo sapiens, 40 μM PBPE, 48 hours. How it is done: as §1, §2
Experiment [3] relates to C6. The experiment in a line: Inhibition of OCDO production by PBPE in C6. In kind it is cell-based. As to conditions: Rattus norvegicus, 40 μM PBPE, 48 hours. The method, then: as §1, §2
Experiment [4] has as its target T1, ChEH (Rattus norvegicus, UniProt Q9JJ46).
T1 construct: 150 μg of rat liver microsome proteins are incubated; from tissue; host or cells: rat liver microsomes
T1 sequence (Q9JJ46 1-230): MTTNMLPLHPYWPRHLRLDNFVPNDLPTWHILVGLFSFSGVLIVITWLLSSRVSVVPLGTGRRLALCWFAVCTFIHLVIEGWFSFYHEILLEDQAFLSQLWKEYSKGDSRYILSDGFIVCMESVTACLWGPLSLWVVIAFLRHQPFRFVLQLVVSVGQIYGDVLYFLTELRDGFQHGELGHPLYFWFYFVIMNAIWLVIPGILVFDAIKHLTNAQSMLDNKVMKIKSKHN
The experiment in a line: Determination of the Ki for ChEH on rat liver microsome proteins (Dixon method). In kind it is biochemical. The conditions noted are these: 150 μg rat liver microsome proteins, [14C]CEα. (In general: Liver microsomes are vesicles of endoplasmic reticulum, rich in cytochrome P450 enzymes.)

The subject of experiment [5] is OCDO. The experiment in a line: OCDO content of TS/A tumors by GC/MS. The conditions noted are these: PBPE 40 μM, 100 μl intratumorally once a day. The format is in vivo, mice. The method, then: 5 volumes (relative to the mass removed) of buffer (50 mM Tris-HCl, 150 mM KCl, pH=7.4) are added. The tumors are ground and the homogenates are centrifuged for 5 minutes at 2500 rpm at 4° C. […] After centrifugation (to separate the phases), the organic phase is recovered. The organic phase is evaporated to dryness and then the residue is taken up with 0.5 ml of chloroform. The organic extracts are filtered on 0.5 ml silica cartridges. The polar sterols are eluted sequentially:
1) 0.5 ml of a hexane/chloroform mixture (1/1), 2) 0.5 ml of chloroform, 3) 0.5 ml of ethyl acetate and methanol.
The ethyl acetate fractions are evaporated, silylated (50 μl 1/1 acetonitrile/BSTFA) and then analyzed by GC/MS (2 μl) according to the conditions described above.

As usually defined, the inhibition is the share of the control response that was lost under treatment. Broadly, the Ki is a dissociation constant, usually derived from enzyme kinetics or from competition with a known ligand. Low readings indicate a stronger hold on the target, high ones a looser hold on the target.

For the compound `c1ccc(Cc2ccc(OCCN3CCCC3)cc2)cc1` [PBPE, N,N-pyrrolidino-[(4-benzyl)phenoxy]ethanamine], the inhibition at 40 µM in experiment [1], in experiment [2] and in experiment [3] was 100% in each case. Also, the Ki in experiment [4] worked out at 26.8 ± 6 nM. The “OCDO (% control)” value in experiment [5] (Day 28) came out at 22.5 ± 5 % control; in experiment [5] (Day 37) it was 9.6 ± 5 % control.
